The record followed here is patent publication US10618914B2 (UNIVERSITY OF PITTSBURGH—OF THE COMMONWEALTH SYSTEM OF …, priority 2015, dated 2020).

Like-named read-outs stand apart in the source and are kept apart here. Where only a bound is given, the exact number is not on record here.

Type in all cases: cell-based
One test concerns STAT1. The test is described as follows: STAT1 assay (selectivity counter-screen). On the technique in general: A counterscreen serves to expose hits that act by an unwanted route or on another target.
For the next test, the system named is STAT3. Kind of test: HCS STAT3 assay.
In the next test the test system is Cal33 cells. The test is described as follows: Cal33 growth inhibition. As to conditions: for GI50: Table 5, * average of 2 experiments; for IC50: read-out: Cal33 (IC50).
The mark [1] stands for this setting: Table 4, read-out: STAT3 IC50 (converted).
The mark [2] stands for this setting: Table 5, * average of 2 experiments.
[3] abbreviates: Table 2, read-out: STAT3 (IC50).

For the compound `Clc1ccc(C2=Nn3c(nnc3-c3cc(-c4ccccc4)n[nH]3)SC2)cc1Cl` [1b], the IC50 in the test on STAT1 (Table 4) was > 50 µM.
Consider `Clc1ccc(C2=Nn3c(nnc3-c3[nH]nc4c3CCC4)SC2)cc1` [2a], for which the IC50 in the test with STAT1 (Table 4) is > 50 µM.
Consider `Clc1cccc(C2=Nn3c(nnc3-c3[nH]nc4c3CCC4)SC2)c1` [6a], for which the IC50 in the test on STAT1 (Table 4) is > 50 µM.
Take `Clc1cccc(C2=Nn3c(nnc3-c3cc(-c4ccccc4)n[nH]3)SC2)c1` [6b]: the figures for the IC50 in the test on STAT3 (setting [1]) and in the test with STAT1 (Table 4) were 5.6 µM and 45.9 µM, respectively.
On to `c1ccc(C2=Nn3c(nnc3-c3[nH]nc4c3CCC4)SC2)cc1` [7a], for which the IC50 in the test on STAT3 (setting [1]) is 21.2 ± 23.5 µM; in the test with STAT1 (Table 4) it was > 50 µM.
In the same order, the values of `c1ccc(C2=Nn3c(nnc3-c3cc(-c4ccccc4)n[nH]3)SC2)cc1` [7b] are 27 µM and > 50 µM.
Regarding `c1cc(C2=Nn3c(nnc3-c3[nH]nc4c3CCC4)SC2)ccn1` [9a], the 50% inhibitory concentration (IC50) with STAT3 (setting [1]) and with STAT1 (Table 4) was > 50 µM each time.
Take `c1ccc(-c2cc(-c3nnc4n3N=C(c3ccncc3)CS4)[nH]n2)cc1` [9b]: the IC50 in the test on STAT3 (setting [1]) and with STAT1 (Table 4) was > 50 µM in each case.
Consider `Clc1ccc(C2=Nn3c(nnc3-c3[nH]nc4c3CCC4)SC2)s1` [10a], for which the IC50 in the test on STAT1 (Table 4) was > 50 µM.
As for `Clc1ccc(C2=Nn3c(nnc3-c3cc(-c4ccccc4)n[nH]3)SC2)s1` [10b], the IC50 in the test on STAT3 (setting [1]) and in the test with STAT1 (Table 4) was > 50 µM throughout.
With `C1=Nn2c(nnc2-c2[nH]nc3c2CCC3)SC1` [11a], the IC50 in the test on STAT3 (setting [1]) and in the test with STAT1 (Table 4) was > 50 µM each time.
Turning to `C1=Nn2c(nnc2-c2cc(-c3ccccc3)n[nH]2)SC1` [11b], the IC50 with STAT3 (setting [1]) and with STAT1 (Table 4) was > 50 µM each time.
With `CC1=Nn2c(nnc2-c2[nH]nc3c2CCC3)SC1` [12a], the IC50 in the test on STAT3 (setting [1]) and with STAT1 (Table 4) was > 50 µM in each case.
In the case of `CC1=Nn2c(nnc2-c2cc(-c3ccccc3)n[nH]2)SC1` [12b], the IC50 with STAT3 (setting [1]) and in the test with STAT1 (Table 4) was > 50 µM each time.
In the case of `C1CCC(C2=Nn3c(nnc3-c3[nH]nc4c3CCC4)SC2)CC1` [13a], the IC50 is > 30 µM in the test on STAT3 (setting [1]) and > 50 µM with STAT1 (Table 4).
Turning to `c1ccc(-c2cc(-c3nnc4n3N=C(C3CCCCC3)CS4)[nH]n2)cc1` [13b], the IC50 in the test on STAT3 (setting [1]) and in the test on STAT1 (Table 4) was > 50 µM each time.
`COc1ccc(C2=Nn3c(nnc3-c3[nH]nc4c3CCC4)SC2C(C)C)cc1` (stereo not shown) [Cmpd 26] had a GI50 with Cal33 cells of 0.4 ± 0.1 µM. Besides, the IC50 in the test with STAT1 (setting [2]) is > 50 µM.
`CCC(C)C1Sc2nnc(-c3cc(-c4ccccc4)n[nH]3)n2N=C1c1ccc(OC)cc1` (stereo not shown) [Cmpd 28] showed a GI50 in the test on Cal33 cells of 0.5 µM. The IC50 in the test with STAT1 (setting [2]) was > 50 µM.
With `COc1ccc(C2=Nn3c(nnc3-c3nn(CC(=O)OC(C)(C)C)c4c3CCC4)SC2C)cc1` (stereo not shown) [compound 10438], the IC50 with Cal33 cells (Table 2) was found to be 49.6 µM; with STAT3 (setting [3]) it was 34.1 µM.
`COc1ccc(C2=Nn3c(nnc3-c3nn(Cc4ccccc4)c4c3CCC4)SC2C)cc1` (stereo not shown) [compound 10439]: the IC50 in the test on Cal33 cells (Table 2) was 1.7 µM; with STAT3 (setting [3]) it was 7.6 µM.
With `CCOC(=O)CC1Sc2nnc(-c3cc(-c4ccccc4)n[nH]3)n2N=C1c1ccc(OC)cc1` (stereo not shown) [compound 10448], the values for the IC50 with Cal33 cells (Table 2) and in the test with STAT3 (setting [3]) were 13.6 µM and 15.5 µM, respectively.
In the case of `CC(=O)n1nc(-c2nnc3n2N=C(c2ccc(Cl)c(Cl)c2)C(C)S3)c2c1CCC2` (stereo not shown) [compound 10458], the IC50 was determined as 4.5 µM with Cal33 cells (Table 2) and 22.7 µM with STAT3 (setting [3]).
In the same order, the values of `CC1Sc2nnc(-c3nn(C)c4c3CCC4)n2N=C1c1ccc(Cl)c(Cl)c1` (stereo not shown) [compound 10469] are 3.1 µM and 7.8 µM.
In the same order, the values of `CC1Sc2nnc(-c3[nH]nc4c3CCC4)n2N=C1c1ccc(C(F)(F)F)cc1` (stereo not shown) [compound 10470] are 1.4 µM and 24.4 µM.
As for `COc1cccc(C2=Nn3c(nnc3-c3[nH]nc4c3CCC4)SC2C)c1` (stereo not shown) [compound 10471], the IC50 with Cal33 cells (Table 2) amounted to 3.9 µM; in the test on STAT3 (setting [3]), 40.1 µM.
The corresponding values for `Cc1ccc(C2=Nn3c(nnc3-c3[nH]nc4c3CCC4)SC2C)cc1` (stereo not shown) [compound 10472] are 0.18 µM and 41.1 µM.
As to `Cc1ccc(C2=Nn3c(nnc3-c3cc(-c4ccccc4)n[nH]3)SC2C)cc1` (stereo not shown) [compound 10473], the IC50 turned out to be 12 µM in the test on Cal33 cells (Table 2) and 14.1 µM in the test on STAT3 (setting [3]).
In the same order, the values of `CC1Sc2nnc(-c3cc(-c4ccccc4)n[nH]3)n2N=C1c1ccc(OC(F)(F)F)cc1` (stereo not shown) [compound 10474] are 50 µM and 24.2 µM.
On to `COc1cccc(C2=Nn3c(nnc3-c3cc(-c4ccccc4)n[nH]3)SC2C)c1` (stereo not shown) [compound 10475], for which the 50% inhibitory concentration (IC50) in the test with Cal33 cells (Table 2) was determined as 12.4 µM; in the test on STAT3 (setting [3]), 7.1 µM.
For the compound `CC1Sc2nnc(-c3[nH]nc4c3CCC4)n2N=C1c1ccc(Br)cc1` (stereo not shown) [compound 10476], the IC50 in the test on Cal33 cells (Table 2) was found to be 0.79 µM; in the test on STAT3 (setting [3]), 18.6 µM.
The corresponding values for `CC1Sc2nnc(-c3nn(Cc4ccc(OC(F)(F)F)cc4)c4c3CCC4)n2N=C1c1ccc(Cl)c(Cl)c1` (stereo not shown) [compound 10477] are 34.3 µM and 31 µM.
For `CC1Sc2nnc(-c3cc(-c4ccccc4)n[nH]3)n2N=C1c1ccc(C(F)(F)F)cc1` (stereo not shown) [compound 10478], the 50% inhibitory concentration (IC50) with Cal33 cells (Table 2) stood at 50 µM; with STAT3 (setting [3]) it was 35.9 µM.
The corresponding values for `COc1ccc(C2=Nn3c(nnc3-c3cc(-c4ccccc4)n(C(C)=O)n3)SC2C)cc1` (stereo not shown) [compound 10479] are 38.1 µM and 7.9 µM.
On to `COc1ccc(C2=Nn3c(nnc3-c3cc(-c4ccccc4)nn3C(C)=O)SC2C)cc1` (stereo not shown) [compound 10480], for which the 50% inhibitory concentration (IC50) in the test on Cal33 cells (Table 2) was found to be 30.4 µM; with STAT3 (setting [3]), 6.3 µM.
In the same order, the values of `CC1Sc2nnc(-c3nn(Cc4ccccc4)c4c3CCC4)n2N=C1c1ccc(Cl)c(Cl)c1` (stereo not shown) [compound 10491] are 17.4 µM and 5.9 µM.
The corresponding values for `COc1ccc(C2=Nn3c(nnc3-c3[nH]nc4c3CCC4)SC2C)cc1OC` (stereo not shown) [compound 10494] are 5.7 µM and 25.1 µM.
In the same order, the values of `COc1ccc(C2=Nn3c(nnc3-c3cc(-c4ccccc4)n[nH]3)SC2C)cc1OC` (stereo not shown) [compound 10495] are 13.1 µM and 7.6 µM.
Turning to `CC1Sc2nnc(-c3[nH]nc4c3CCC4)n2N=C1c1ccc(F)c(F)c1` (stereo not shown) [compound 10510], the IC50 in the test on Cal33 cells (Table 2) stood at 50 µM; with STAT3 (setting [3]), 47.1 µM.
Take `COc1ccc(C2=Nn3c(nnc3-c3cc(-c4ccccc4)n[nH]3)SC2C)cc1` (stereo not shown) [compound 10511]: the IC50 with Cal33 cells (Table 2) came out at 28 µM; with STAT3 (setting [3]) it was 7.6 µM.
In the same order, the values of `COc1ccc(C2=Nn3c(nnc3-c3[nH]nc4c3CN(Cc3ccccc3)C4)SC2C)cc1` (stereo not shown) [compound 10512] are 4.6 µM and 27 µM.
As to `CCN(CC)c1ccc(C2=Nn3c(nnc3-c3[nH]nc4c3CCC4)SC2C)cc1` (stereo not shown) [compound 10521], the IC50 in the test with Cal33 cells (Table 2) worked out at 1 µM; with STAT3 (setting [3]), 6.6 µM.
The corresponding values for `CC1Sc2nnc(-c3cc(-c4ccccc4)n[nH]3)n2N=C1c1ccc(N2CCOCC2)cc1` (stereo not shown) [compound 10522] are 9.6 µM and 39.3 µM.
On to `CC1Sc2nnc(-c3cc(-c4ccccc4)n[nH]3)n2N=C1c1ccc(F)c(F)c1` (stereo not shown) [compound 10532], for which the IC50 with Cal33 cells (Table 2) amounted to 14.2 µM; in the test on STAT3 (setting [3]), 8.6 µM.
With `COc1ccc(C2=Nn3c(-c4cc(-c5ccccc5)n[nH]4)nnc3[S+]([O-])C2C)cc1` (stereo not shown) [compound 10534], the IC50 in the test on Cal33 cells (Homo sapiens, CAL-33, Table 2) is 50 µM; in the test with STAT3 (setting [3]) it was 26.2 µM.
With `COc1cccc(C2=Nn3c(nnc3-c3cc(-c4ccc(Cl)cc4)n[nH]3)SC2C)c1` (stereo not shown) [compound 10535], the results for the IC50 in the test on Cal33 cells (Table 2) and in the test with STAT3 (setting [3]) were 6.3 µM and 7 µM, respectively.
In the case of `COc1cccc(C2=Nn3c(nnc3-c3cc(-c4cccc(Cl)c4)n[nH]3)SC2C)c1` (stereo not shown) [compound 10536], the IC50 in the test on Cal33 cells (Table 2) was determined as 9.3 µM; in the test with STAT3 (setting [3]), 9.1 µM.
In the same order, the values of `CC1Sc2nnc(-c3cc(-c4ccc(Cl)cc4)n[nH]3)n2N=C1c1ccc(Cl)c(Cl)c1` (stereo not shown) [compound 10537] are 7.6 µM and 16 µM.
In the same order, the values of `CC1Sc2nnc(-c3cc(-c4cccc(Cl)c4)n[nH]3)n2N=C1c1ccc(Cl)c(Cl)c1` (stereo not shown) [compound 10538] are 13.7 µM and 32.2 µM.
On to `COc1ccc(C2=Nn3c(nnc3-c3cc(-c4cccc(Cl)c4)n[nH]3)SC2C)cc1` (stereo not shown) [compound 10539], for which the IC50 in the test on Cal33 cells (Table 2) turned out to be 12.7 µM; with STAT3 (setting [3]), 8.7 µM.
Consider `COc1ccc(C2=Nn3c(nnc3-c3cc(-c4ccccc4)nn3C)SC2C)cc1` (stereo not shown) [compound 10540], for which the figures for the IC50 in the test with Cal33 cells (Table 2) and in the test with STAT3 (setting [3]) were 1.3 µM and 4.7 µM, respectively.
`COc1ccc(C2=Nn3c(nnc3-c3cc(-c4ccccc4)n(C)n3)SC2C)cc1` (stereo not shown) [compound 10542]: the IC50 in the test with Cal33 cells (Table 2) came to 15.1 µM; in the test on STAT3 (setting [3]), 6.5 µM.
The corresponding values for `CC1Sc2nnc(-c3cc(-c4ccccc4)n(C)n3)n2N=C1c1ccc(Cl)c(Cl)c1` (stereo not shown) [compound 10543] are 35 µM and 4.8 µM.
As to `COc1ccc(C2=Nn3c(nnc3-c3n[nH]c(-c4ccc(Cl)cc4)c3C)SC2C)cc1` (stereo not shown) [compound 10547], the IC50 with Cal33 cells (Table 2) was 1.3 µM; with STAT3 (setting [3]), 7.3 µM.
In the same order, the values of `COc1ccc(C2=Nn3c(nnc3-c3cc(-c4ccccc4)n(C)n3)SC2C(C)C)cc1` (stereo not shown) [compound 10554] are 19.1 µM and 8.3 µM.
`CCN(CC)c1ccc(C2=Nn3c(nnc3-c3cc(-c4ccccc4)n(C)n3)SC2C)cc1` (stereo not shown) [compound 10555]: the IC50 in the test on Cal33 cells (Table 2) turned out to be 10.5 µM; in the test on STAT3 (setting [3]), 3.7 µM.
In the same order, the values of `CC(C)C1Sc2nnc(-c3cc(-c4ccccc4)n(C)n3)n2N=C1c1ccc(Cl)c(Cl)c1` (stereo not shown) [compound 10556] are 48.6 µM and 27.3 µM.
The corresponding values for `CCN(CC)c1ccc(C2=Nn3c(nnc3-c3cc(-c4ccccc4)nn3C)SC2C)cc1` (stereo not shown) [compound 10559] are 27.5 µM and 5.7 µM.
The corresponding values for `CC(C)C1Sc2nnc(-c3cc(-c4ccccc4)n(C)n3)n2N=C1c1ccccc1` (stereo not shown) [compound 10562] are 50 µM and 12.2 µM.

By IC50 is commonly meant the concentration at which inhibition is half-maximal. The GI50 is the concentration at which growth is held to half of that of the control. A high value points to less potent growth inhibition.
